Measurements as given in paper PMC11345841, “Exploring 2-Sulfonylpyrimidine Warheads as Acrylamide Surrogates for Targeted Covalent Inhibition: A BTK Story” (Journal of Medicinal Chemistry, 2024).
Read-outs that look alike come from different tables or passages of the source.

Key:
[1] = molecular target: T1, ABL1(M351T)-phosphorylated (Homo sapiens, UniProt P00519, M351T); assay: KINOMEscan ScanTK; assay type: binding
T1 construct: purchased Eurofins DiscoverX KINOMEscan (scanTK)

BRK = molecular target: T2, BRK (Homo sapiens, UniProt Q13882); assay: KINOMEscan ScanTK; assay type: binding
T2 construct: purchased Eurofins DiscoverX KINOMEscan (scanTK)

BTK = molecular target: T3, BTK (Homo sapiens, UniProt Q06187); assay: KINOMEscan ScanTK; assay type: binding; conditions: for remaining binding at 1 µM: BTK
T3 construct: purchased Eurofins DiscoverX KINOMEscan (scanTK)

EGFR(L747-T751del,Sins) = assay: KINOMEscan ScanTK; assay type: binding
EGFR(S752-I759del) = molecular target: T4, EGFR(S752-I759del) (Homo sapiens, UniProt P00533, DEL752-759); assay: KINOMEscan ScanTK; assay type: binding
T4 construct: purchased Eurofins DiscoverX KINOMEscan (scanTK)

EPHB2 = molecular target: T5, EPHB2 (Homo sapiens, UniProt P29323); assay: KINOMEscan ScanTK; assay type: binding
T5 construct: purchased Eurofins DiscoverX KINOMEscan (scanTK)
T5 sequence (P29323 19-1055): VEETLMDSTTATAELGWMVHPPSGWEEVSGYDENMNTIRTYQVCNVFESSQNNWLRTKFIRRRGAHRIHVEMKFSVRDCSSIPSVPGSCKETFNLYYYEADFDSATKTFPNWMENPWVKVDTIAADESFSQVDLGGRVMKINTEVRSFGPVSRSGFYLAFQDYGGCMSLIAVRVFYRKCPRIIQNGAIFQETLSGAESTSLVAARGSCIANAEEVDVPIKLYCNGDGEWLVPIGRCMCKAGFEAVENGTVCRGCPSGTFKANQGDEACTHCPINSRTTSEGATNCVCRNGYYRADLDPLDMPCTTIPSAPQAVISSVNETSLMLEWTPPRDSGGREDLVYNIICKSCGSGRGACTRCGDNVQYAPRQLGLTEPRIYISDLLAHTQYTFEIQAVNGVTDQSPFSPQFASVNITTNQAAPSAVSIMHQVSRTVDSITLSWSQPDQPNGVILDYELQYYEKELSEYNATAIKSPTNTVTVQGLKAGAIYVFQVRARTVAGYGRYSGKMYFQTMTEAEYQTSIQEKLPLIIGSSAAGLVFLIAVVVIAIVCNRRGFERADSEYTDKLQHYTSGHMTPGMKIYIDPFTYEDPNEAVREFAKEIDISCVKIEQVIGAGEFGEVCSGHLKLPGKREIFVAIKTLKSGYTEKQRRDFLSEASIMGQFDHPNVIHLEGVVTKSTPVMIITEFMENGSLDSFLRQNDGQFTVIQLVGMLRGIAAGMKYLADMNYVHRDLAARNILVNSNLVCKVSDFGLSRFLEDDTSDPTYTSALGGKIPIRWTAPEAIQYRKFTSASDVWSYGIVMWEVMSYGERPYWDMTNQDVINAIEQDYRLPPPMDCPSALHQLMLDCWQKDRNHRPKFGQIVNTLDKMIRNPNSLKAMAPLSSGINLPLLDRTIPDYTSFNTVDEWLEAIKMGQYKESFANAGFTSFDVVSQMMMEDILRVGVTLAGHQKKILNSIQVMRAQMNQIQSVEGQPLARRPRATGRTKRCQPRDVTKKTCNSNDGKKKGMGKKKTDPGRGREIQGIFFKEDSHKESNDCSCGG

ITK = molecular target: T6, ITK (Homo sapiens, UniProt Q08881); assay: KINOMEscan ScanTK; assay type: binding
T6 construct: purchased Eurofins DiscoverX KINOMEscan (scanTK)
T6 sequence (Q08881 1-620): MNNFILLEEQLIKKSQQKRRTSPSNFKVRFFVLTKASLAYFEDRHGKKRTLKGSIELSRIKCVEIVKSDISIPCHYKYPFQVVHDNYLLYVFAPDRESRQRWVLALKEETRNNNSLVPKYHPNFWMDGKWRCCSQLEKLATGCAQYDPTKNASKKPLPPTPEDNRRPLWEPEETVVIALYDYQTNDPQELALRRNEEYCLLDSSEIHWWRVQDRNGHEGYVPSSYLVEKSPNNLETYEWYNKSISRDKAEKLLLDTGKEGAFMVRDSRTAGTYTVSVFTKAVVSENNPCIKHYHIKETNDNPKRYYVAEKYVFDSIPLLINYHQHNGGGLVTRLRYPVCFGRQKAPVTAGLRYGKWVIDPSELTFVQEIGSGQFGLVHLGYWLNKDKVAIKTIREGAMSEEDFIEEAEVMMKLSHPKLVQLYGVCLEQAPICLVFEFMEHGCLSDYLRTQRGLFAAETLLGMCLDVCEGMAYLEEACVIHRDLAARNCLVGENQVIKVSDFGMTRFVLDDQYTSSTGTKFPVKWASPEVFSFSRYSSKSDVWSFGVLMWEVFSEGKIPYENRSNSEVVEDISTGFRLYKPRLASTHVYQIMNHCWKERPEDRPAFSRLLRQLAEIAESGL

[2] = molecular target: T7, JAK1(JH2domain-pseudokinase) (Homo sapiens, UniProt P23458); assay: KINOMEscan ScanTK; assay type: binding
T7 construct: JAK1(JH2domain-pseudokinase); purchased Eurofins DiscoverX KINOMEscan (scanTK)

KIT-autoinhibited = molecular target: T8, KIT-autoinhibited (Homo sapiens, UniProt P10721); assay: KINOMEscan ScanTK; assay type: binding
T8 construct: purchased Eurofins DiscoverX KINOMEscan (scanTK)

ROS1 = molecular target: T9, ROS1 (Homo sapiens, UniProt P08922); assay: KINOMEscan ScanTK; assay type: binding
T9 construct: purchased Eurofins DiscoverX KINOMEscan (scanTK)

ITK, full length = molecular target: T10, ITK, full length (Homo sapiens, UniProt Q08881); assay: PhosphoSens enzymatic IC50 (AssayQuant)
T10 sequence (Q08881 1-620): T6 sequence (Q08881 1-620)
Description: Biochemical enzymatic IC50 data were generated by AssayQuant Technologies (Marlborough, MA) using the PhosphoSens Platform. […] Reaction rate versus log [inhibitor concentration] data were fitted to the four-parameter logistic equation [drawing 1]

BTK Y223 phosphorylation = assay: Immunoblotting, anti-IgM-induced signaling in OCI-LY7 cells; conditions: 500 nM, 1 h
Protocol: We also investigated the effects of the compounds (at 500 nM) on sIgM signaling by analyzing the phosphorylation status of key signaling molecules activated downstream of the BCR.
Secondary antibodies were horseradish peroxidase-conjugated antibodies (GE Healthcare). Images were captured using the Amersham ImageQuant 800 System and quantified using ImageJ (http://imagej.nih.gov/ij/). Expression of phosphorylated proteins was normalized to the equivalent total protein with values for DMSO/anti-IgM set to 100%.

[3] = @1000nM, read-out: % difference (compound - Ib %Control)

T9 sequence (P08922 28-2347): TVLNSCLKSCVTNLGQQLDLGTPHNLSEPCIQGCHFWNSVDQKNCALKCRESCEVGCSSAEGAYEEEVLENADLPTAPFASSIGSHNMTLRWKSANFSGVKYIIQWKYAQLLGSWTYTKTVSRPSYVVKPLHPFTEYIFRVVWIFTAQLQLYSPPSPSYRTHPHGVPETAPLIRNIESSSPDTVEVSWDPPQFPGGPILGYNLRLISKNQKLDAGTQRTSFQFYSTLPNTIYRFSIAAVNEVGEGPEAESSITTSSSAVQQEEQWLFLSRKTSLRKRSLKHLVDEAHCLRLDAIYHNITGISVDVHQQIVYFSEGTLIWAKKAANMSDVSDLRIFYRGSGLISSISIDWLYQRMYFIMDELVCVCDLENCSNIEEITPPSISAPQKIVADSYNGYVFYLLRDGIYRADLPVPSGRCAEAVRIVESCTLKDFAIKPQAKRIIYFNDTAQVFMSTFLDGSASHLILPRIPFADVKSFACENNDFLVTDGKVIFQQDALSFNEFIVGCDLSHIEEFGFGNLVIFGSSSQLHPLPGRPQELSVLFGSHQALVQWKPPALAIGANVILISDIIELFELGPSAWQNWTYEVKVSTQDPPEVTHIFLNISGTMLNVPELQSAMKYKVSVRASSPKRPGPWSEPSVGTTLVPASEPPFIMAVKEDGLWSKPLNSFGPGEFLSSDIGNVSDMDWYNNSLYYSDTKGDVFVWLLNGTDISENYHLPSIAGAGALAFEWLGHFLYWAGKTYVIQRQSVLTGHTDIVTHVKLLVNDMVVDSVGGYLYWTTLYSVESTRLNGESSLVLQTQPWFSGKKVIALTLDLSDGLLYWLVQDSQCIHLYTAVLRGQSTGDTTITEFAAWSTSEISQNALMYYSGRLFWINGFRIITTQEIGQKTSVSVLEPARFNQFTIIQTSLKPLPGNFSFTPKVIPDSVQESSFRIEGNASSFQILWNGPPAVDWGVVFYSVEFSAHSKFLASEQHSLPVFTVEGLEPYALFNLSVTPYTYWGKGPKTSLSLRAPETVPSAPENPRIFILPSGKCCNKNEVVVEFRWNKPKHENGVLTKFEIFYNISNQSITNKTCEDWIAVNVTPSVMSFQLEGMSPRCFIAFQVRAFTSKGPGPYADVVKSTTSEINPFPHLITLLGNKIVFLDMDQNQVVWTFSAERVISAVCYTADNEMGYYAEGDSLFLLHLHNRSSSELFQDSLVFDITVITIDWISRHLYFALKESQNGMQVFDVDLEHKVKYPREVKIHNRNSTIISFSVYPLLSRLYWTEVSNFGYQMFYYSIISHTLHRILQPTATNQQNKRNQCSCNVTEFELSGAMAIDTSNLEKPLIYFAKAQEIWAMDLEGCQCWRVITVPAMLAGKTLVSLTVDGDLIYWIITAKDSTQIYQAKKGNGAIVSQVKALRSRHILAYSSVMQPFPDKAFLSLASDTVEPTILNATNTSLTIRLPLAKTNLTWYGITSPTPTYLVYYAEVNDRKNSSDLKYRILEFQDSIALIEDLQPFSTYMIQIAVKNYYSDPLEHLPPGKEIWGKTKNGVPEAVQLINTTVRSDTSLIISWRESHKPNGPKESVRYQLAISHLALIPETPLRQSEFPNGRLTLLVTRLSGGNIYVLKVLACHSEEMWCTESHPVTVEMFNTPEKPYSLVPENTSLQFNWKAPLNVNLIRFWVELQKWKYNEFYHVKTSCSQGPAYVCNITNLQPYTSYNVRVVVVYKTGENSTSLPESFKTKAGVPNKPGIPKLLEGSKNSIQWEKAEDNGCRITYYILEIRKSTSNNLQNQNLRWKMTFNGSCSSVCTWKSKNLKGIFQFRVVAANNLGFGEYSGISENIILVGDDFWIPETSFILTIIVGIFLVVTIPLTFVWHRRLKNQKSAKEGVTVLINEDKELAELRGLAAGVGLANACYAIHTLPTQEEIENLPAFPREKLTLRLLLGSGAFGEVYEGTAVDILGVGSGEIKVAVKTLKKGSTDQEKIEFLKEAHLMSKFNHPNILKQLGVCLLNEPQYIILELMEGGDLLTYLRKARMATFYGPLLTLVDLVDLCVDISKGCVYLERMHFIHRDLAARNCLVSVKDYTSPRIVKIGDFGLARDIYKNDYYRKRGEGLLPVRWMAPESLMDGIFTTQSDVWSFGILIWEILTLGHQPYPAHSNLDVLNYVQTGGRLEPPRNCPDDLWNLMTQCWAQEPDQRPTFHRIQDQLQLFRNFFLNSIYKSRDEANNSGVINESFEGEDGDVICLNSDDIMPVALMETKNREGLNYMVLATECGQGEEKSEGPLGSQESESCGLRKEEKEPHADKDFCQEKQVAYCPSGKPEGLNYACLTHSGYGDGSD
T3 sequence (Q06187 whole entry): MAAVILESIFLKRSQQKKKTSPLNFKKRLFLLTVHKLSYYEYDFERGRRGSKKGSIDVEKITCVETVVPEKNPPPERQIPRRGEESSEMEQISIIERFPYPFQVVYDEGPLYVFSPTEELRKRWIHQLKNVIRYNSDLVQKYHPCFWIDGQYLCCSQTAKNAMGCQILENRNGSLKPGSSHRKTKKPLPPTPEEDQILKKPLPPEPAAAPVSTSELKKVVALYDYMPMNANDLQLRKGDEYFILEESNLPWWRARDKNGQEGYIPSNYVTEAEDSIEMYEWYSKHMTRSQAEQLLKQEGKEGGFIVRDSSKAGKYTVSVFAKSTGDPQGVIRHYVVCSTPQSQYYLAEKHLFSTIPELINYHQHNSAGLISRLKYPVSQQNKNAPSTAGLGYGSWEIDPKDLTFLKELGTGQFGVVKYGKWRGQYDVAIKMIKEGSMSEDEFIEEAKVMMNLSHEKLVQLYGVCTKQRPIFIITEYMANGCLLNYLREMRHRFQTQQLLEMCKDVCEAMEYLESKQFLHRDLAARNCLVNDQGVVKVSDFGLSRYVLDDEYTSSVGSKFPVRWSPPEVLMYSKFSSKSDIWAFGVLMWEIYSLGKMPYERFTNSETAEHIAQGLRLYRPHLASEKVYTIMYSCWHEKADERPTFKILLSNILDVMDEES
T2 sequence (Q13882 whole entry): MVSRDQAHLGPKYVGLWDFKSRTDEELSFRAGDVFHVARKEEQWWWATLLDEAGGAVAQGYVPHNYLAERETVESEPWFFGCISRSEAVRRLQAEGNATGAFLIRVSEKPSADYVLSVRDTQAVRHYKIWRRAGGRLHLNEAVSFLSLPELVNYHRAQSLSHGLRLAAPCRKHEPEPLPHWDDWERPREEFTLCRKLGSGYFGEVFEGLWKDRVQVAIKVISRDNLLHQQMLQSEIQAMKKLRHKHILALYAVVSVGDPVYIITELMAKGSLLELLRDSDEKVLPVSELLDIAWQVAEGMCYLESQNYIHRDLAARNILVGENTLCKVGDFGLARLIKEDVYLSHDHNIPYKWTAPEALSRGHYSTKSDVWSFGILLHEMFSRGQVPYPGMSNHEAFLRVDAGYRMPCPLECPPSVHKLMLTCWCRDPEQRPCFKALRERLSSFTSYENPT
T4 sequence (P00533 with tags, fused parts or gaps DEL752-759 limits assumed): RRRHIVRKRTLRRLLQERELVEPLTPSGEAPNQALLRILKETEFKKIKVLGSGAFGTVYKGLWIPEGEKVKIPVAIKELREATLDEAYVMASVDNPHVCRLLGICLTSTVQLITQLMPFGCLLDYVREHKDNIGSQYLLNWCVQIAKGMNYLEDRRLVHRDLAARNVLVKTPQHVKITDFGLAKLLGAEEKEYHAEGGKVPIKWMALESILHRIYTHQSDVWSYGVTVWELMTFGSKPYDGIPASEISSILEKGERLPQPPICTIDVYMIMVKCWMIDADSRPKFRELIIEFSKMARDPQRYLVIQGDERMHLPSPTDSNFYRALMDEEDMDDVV
T7 sequence (P23458 583-855 limits assumed): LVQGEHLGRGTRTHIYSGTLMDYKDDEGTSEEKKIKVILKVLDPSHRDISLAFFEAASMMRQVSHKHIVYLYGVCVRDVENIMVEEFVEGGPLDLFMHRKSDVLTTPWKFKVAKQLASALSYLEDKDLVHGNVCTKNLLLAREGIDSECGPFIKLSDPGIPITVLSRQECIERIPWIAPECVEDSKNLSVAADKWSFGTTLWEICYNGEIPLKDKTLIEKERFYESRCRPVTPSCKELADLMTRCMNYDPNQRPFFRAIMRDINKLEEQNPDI
T8 sequence (P10721 26-976): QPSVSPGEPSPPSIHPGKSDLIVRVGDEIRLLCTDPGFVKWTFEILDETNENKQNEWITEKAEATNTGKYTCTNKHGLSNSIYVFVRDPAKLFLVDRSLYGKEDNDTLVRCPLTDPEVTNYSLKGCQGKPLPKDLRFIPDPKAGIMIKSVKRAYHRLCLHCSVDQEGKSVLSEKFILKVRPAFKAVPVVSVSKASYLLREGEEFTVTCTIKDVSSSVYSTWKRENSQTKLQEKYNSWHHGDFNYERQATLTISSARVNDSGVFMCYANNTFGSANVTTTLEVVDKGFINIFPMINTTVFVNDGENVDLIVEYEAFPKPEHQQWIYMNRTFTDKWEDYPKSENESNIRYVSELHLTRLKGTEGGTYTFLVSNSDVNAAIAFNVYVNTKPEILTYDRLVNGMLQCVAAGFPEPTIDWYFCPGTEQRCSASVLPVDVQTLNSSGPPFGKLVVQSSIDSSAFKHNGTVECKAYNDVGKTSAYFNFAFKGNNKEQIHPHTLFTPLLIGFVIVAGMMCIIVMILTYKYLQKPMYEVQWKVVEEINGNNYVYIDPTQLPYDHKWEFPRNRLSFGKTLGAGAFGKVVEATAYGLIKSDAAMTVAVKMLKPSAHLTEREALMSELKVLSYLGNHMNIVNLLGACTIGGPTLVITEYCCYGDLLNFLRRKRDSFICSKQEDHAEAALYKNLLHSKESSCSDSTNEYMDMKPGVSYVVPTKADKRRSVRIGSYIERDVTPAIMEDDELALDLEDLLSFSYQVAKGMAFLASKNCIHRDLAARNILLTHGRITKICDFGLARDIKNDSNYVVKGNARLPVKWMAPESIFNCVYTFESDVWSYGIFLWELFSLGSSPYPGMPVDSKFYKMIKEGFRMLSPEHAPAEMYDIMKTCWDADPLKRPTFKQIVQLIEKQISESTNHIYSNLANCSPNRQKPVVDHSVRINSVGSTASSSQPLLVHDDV

Molecule COC(=O)c1cnc(S(C)(=O)=O)nc1N1CCCC(n2nc(-c3ccc(Oc4ccccc4)cc3)c3c(N)ncnc32)C1 (stereo not drawn) [Compound 8b, Methyl 4-(3-(4-Amino-3-(4-phenoxyphenyl)-1H-pyrazolo[3,4-d]pyrimidin-1-yl)piperidin-1-yl)-2-(methylsulfonyl)pyrimidine-5-carboxylate] has a difference in %Control from compound Ib at 1 µM ([1]; @1000nM) of 1%, a remaining binding at 1 µM ([1]; @1000nM, read-out: %Control) of 66% and a remaining binding at 1 µM ([1]; read-out: %Control @1000nM) of 66%. For the same molecule, the difference in %Control relative to compound Ib at 1 µM (BRK; @1000nM) was 40.7%, the remaining binding at 1 µM (BRK; @1000nM, read-out: %Control) was 42% and the remaining binding at 1 µM (BRK; read-out: %Control @1000nM) was 42%. It also gave a remaining binding at 1 µM (BTK; [3]) of 0.75%, a remaining binding at 1 µM (BTK; @1000nM, read-out: %Control) of 0.75% and a remaining binding at 1 µM (BTK; read-out: %Control @1000nM) of 0.75%. The inhibition at 1 µM (BTK; ScanTK, 1 μM) was greater than 99%, the “%Control @1000nM” value (EGFR(L747-T751del,Sins)) was 65% and the “% difference (compound - Ib %Control)” value (EGFR(L747-T751del,Sins); @1000nM) was 62.4%. For the same molecule, the “%Control” value (EGFR(L747-T751del,Sins); @1000nM) was 65%, the difference in %Control versus compound Ib at 1 µM (EGFR(S752-I759del); @1000nM) was 80% and the remaining binding at 1 µM (EGFR(S752-I759del); @1000nM, read-out: %Control) was 82%. For the same molecule, the remaining binding at 1 µM (EGFR(S752-I759del); read-out: %Control @1000nM) was 82%, the %Control difference from compound Ib at 1 µM (EPHB2; @1000nM) was -9% and the remaining binding at 1 µM (EPHB2; @1000nM, read-out: %Control) was 91%. The remaining binding at 1 µM (EPHB2; read-out: %Control @1000nM) was 91%, the difference in %Control versus compound Ib at 1 µM (ITK; @1000nM, ITK) was 56% and the remaining binding at 1 µM (ITK; @1000nM, ITK, read-out: %Control) was 71%. It also gave a remaining binding at 1 µM (ITK; ITK, read-out: %Control @1000nM) of 71%, an inhibition at 1 µM (ITK; ScanTK, 1 μM) of 29% and a %Control difference versus compound Ib at 1 µM ([2]; @1000nM) of 4%. For the same molecule, the remaining binding at 1 µM ([2]; @1000nM, read-out: %Control) was 99%, the remaining binding at 1 µM ([2]; read-out: %Control @1000nM) was 99% and the remaining binding at 1 µM (KIT-autoinhibited; @1000nM, read-out: %Control) was 90%. The remaining binding at 1 µM (KIT-autoinhibited; read-out: %Control @1000nM) was 90%, the %Control difference versus reference Ib at 1 µM (ROS1; [3]) was -11% and the remaining binding at 1 µM (ROS1; @1000nM, read-out: %Control) was 86%. The remaining binding at 1 µM (ROS1; read-out: %Control @1000nM) was 86%, the IC50 (ITK, full length) was greater than 1000 nM and the “anti-IgM-induced BTK Y223 phosphorylation” value (BTK Y223 phosphorylation) was “selectively reduced BTK Y^223 phosphorylation”.
